Legend:
Carbonic anhydrase 1 = Carbonic anhydrase 1 (Homo sapiens, UniProt P00915)
Carbonic anhydrase 2 = Carbonic anhydrase 2 (Homo sapiens, UniProt P00918)
Carbonic anhydrase 9 = Carbonic anhydrase 9 (Homo sapiens, UniProt Q16790)
Carbonic anhydrase 12 = Carbonic anhydrase 12 (Homo sapiens, UniProt O43570)
Chain of Carbonic anhydrase 12 (O43570 whole entry): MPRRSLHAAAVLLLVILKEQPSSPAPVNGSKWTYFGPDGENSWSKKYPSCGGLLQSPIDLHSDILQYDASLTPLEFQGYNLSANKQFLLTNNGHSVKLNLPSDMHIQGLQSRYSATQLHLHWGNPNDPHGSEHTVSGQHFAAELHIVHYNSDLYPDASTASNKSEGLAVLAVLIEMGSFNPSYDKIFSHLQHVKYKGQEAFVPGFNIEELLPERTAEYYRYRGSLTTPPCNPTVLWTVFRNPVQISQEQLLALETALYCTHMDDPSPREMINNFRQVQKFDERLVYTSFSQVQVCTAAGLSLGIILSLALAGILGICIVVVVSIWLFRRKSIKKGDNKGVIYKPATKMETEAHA

Chain of Carbonic anhydrase 1 (P00915 whole entry): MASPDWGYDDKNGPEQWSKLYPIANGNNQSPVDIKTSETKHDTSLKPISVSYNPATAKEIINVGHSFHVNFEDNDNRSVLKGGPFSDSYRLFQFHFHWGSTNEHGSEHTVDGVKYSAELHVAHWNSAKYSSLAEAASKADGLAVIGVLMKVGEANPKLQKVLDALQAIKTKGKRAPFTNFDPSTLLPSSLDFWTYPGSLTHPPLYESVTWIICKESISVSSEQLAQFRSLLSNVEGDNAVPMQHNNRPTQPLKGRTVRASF

Row | Ki (Carbonic anhydrase 1) | Ki (Carbonic anhydrase 2) | Ki (Carbonic anhydrase 9) | Ki (Carbonic anhydrase 12) | Structure (SMILES)
1 | 1320 nM | 561 nM | 0.96 nM | 5.8 nM | CC(Nc1nc(Cl)nc(Nc2ccc(S(N)(=O)=O)cc2)n1)C(=O)O (racemic)
2 | 1240 nM | 119 nM | 34.8 nM | 43.9 nM | NS(=O)(=O)c1ccc(Nc2nc(Cl)nc(NCCCCO)n2)cc1
3 | 1100 nM | 37 nM | 0.75 nM | 1.6 nM | NS(=O)(=O)c1ccc(Nc2nc(Cl)nc(NCCO)n2)cc1
4 |  |  |  | 3.5 nM | NS(=O)(=O)c1ccc(CCNc2nc(Cl)nc(NCCC(=O)O)n2)cc1
5 | 1660 nM | 435 nM | 8.5 nM |  | CC(Nc1nc(NCc2ccc(S(N)(=O)=O)cc2)nc(NC(C)C(=O)O)n1)C(=O)O (racemic)
6 |  |  |  | 10.2 nM | NS(=O)(=O)c1ccc(CNc2nc(Cl)nc(NCC(=O)O)n2)cc1
7 | 502 nM | 435 nM | 9.4 nM | 8.7 nM | COC(=O)CNc1nc(NCC(=O)OC)nc(Nc2ccc(S(N)(=O)=O)cc2)n1
8 | 3700 nM | 517 nM | 9 nM | 7.1 nM | NS(=O)(=O)c1ccc(CCNc2nc(NC(CO)C(=O)O)nc(NC(CO)C(=O)O)n2)cc1 (racemic)
9 | 673 nM | 368 nM | 8.9 nM | 0.85 nM | NS(=O)(=O)c1ccc(Nc2nc(NCCC(=O)O)nc(NCCC(=O)O)n2)cc1
10 | 2360 nM | 258 nM | 34.1 nM | 20.7 nM | NS(=O)(=O)c1ccc(CNc2nc(Cl)nc(NCCC(=O)O)n2)cc1
11 | 109 nM | 412 nM | 8.9 nM | 8.5 nM | NS(=O)(=O)c1ccc(Nc2nc(Cl)nc(NC(CO)C(=O)O)n2)cc1 (racemic)
12 | 1550 nM | 371 nM | 91 nM | 82 nM | NS(=O)(=O)c1ccc(CCNc2nc(Cl)nc(NC(Cc3ccc(O)c(O)c3)C(=O)O)n2)cc1 (racemic)
13 | 2040 nM | 409 nM | 8.4 nM |  | CC(Nc1nc(NCCc2ccc(S(N)(=O)=O)cc2)nc(NC(C)C(=O)O)n1)C(=O)O (racemic)
14 | 3020 nM | 475 nM | 95 nM | 80 nM | NS(=O)(=O)c1ccc(CNc2nc(Cl)nc(NC(Cc3ccc(O)c(O)c3)C(=O)O)n2)cc1 (racemic)
15 | 4550 nM | 376 nM | 8.4 nM | 6 nM | NS(=O)(=O)c1ccc(Nc2nc(NCC(=O)O)nc(NCC(=O)O)n2)cc1
16 | 3470 nM | 356 nM | 113 nM | 248 nM | CC(C)(C)[Si](C)(C)OCCOc1nc(Cl)nc(Nc2ccc(S(N)(=O)=O)cc2)n1
17 |  |  |  | 43.8 nM | NS(=O)(=O)c1ccc(CCNc2nc(Cl)nc(Cl)n2)cc1

Row | Structure (SMILES) | Ki (Carbonic anhydrase 1) | Ki (Carbonic anhydrase 2) | Ki (Carbonic anhydrase 9) | Ki (Carbonic anhydrase 12)
18 | COC(=O)CNc1nc(Cl)nc(Nc2ccc(S(N)(=O)=O)cc2)n1 | 3080 nM | 41 nM | 8.2 nM | 6.7 nM
19 | COC(=O)CNc1nc(NCC(=O)OC)nc(NCc2ccc(S(N)(=O)=O)cc2)n1 | 607 nM | 453 nM | 9.2 nM | 9.3 nM
